The first data set is described as follows: logP determination by HPLC on a reversed-phase column (C 18), EEC Directive 79/831 Annex V.A8. The format is physicochemical. The note with it: method marked [a] in Table 1. The method, then: The stated logP values were determined in accordance with EEC Directive 79/831 Annex V.A8 by HPLC (high performance liquid chromatography) on a reversed-phase column (C 18). Temperature: 43° C.
With `CCC(=NOCC1(CON=C(CC)c2cc(C)cc(C)n2)CC1)c1cc(C)cc(C)n1` (mixture of isomers) [Compound 570], the logP is 3.22^[a].
`CCC(=NOCC(C)(C)CON=C(CC)c1cc(C)cc(C)n1)c1cc(C)cc(C)n1` (mixture of isomers) [Compound 571]: the logP was 3.92^[a].
Same read-out and setting: with `CCC(=NOCC(C)CON=C(CC)c1cc(C)cc(C)n1)c1cc(C)cc(C)n1` (mixture of isomers) [Compound 572] the figure was 3.23^[a].
The same measure, in the same setting: with `Cc1cccc(C(=NOCC(C)CON=C(c2ccccc2)c2cccc(C)n2)c2ccccc2)n1` (mixture of isomers) [Compound 659] the figure was 4.09^[a].
In the case of `CC(=NOCC(C)CON=C(C)c1nc2ccccc2[nH]1)c1nc2ccccc2[nH]1` (mixture of isomers) [compound 584], the logP was 2.05^[a].
Same read-out and setting: with `CC(=NOCC(C)CON=C(C)c1ccc(C)o1)c1ccc(C)o1` (mixture of isomers) [compound 585] the figure was 4.70^[a]; with `Cc1cccc(C(=NOCC2(CON=C(c3cccc(C)n3)C3CC3)CC(C(C)(C)C)=NO2)C2CC2)n1` (mixture of isomers) [compound 651], 3.98^[a]; with `Cc1cccc(C(=NOCCCON=C(c2ccccc2)c2cccc(C)n2)c2ccccc2)n1` (mixture of isomers) [compound 656], 3.68^[a].

Staying with this data set, now noted: method marked [b] in Table 1.
On to `C=C(CON=Cc1cc(C(F)(F)F)cc(C)n1)CON=C(C)c1cccc(C)n1` (mixture of isomers) [Compound 671], for which the logP is 4.61^[b].
For `CON=C(c1ccccc1)c1cccc(C(C)=NOCC(C)CON=C(C)c2cccc(C)n2)n1` (mixture of isomers) [Compound 693], the logP is 6.22^[b].
Regarding `CC(=NOC(C)C(C)C(C)ON=C(C)c1cccc(C)n1)c1cccc(C)n1` (mixture of isomers) [Compound 743], the logP is 4.90^[b].
Same read-out and setting: under `CC(=NOCC(C)CON=C(C)c1ccc[nH]1)c1ccc[nH]1` (mixture of isomers) [compound 566] stands 3.47^[b].

Still in this data set, the particulars now being: method marked [c] in Table 1.
As to `CC(=NOCC(C)CON=C(C)c1ccc[nH]1)c1ccc[nH]1` (mixture of isomers) [compound 566], the logP is 3.62^[c].

Staying with this data set, now noted: method marker [a] (footnote not shown); isomer A / isomer B / isomer mixture as noted in the cell.
On to `CC(=NOCCON=C(C)c1cccc(C)n1)c1cccc(C)n1` (mixture of isomers) [Compound 13], for which the logP was 2.22^[a].
Same read-out and setting: with `CC(=NOCCCON=C(C)c1nc(C)cs1)c1cccc(C)n1` (mixture of isomers) [Compound 16] the figure was 3.35^[a]; with `Cc1cccc(C(=NOCCCON=C(c2cccc(C)n2)C2CC2)C2CC2)n1` (mixture of isomers) [Compound 167], 2.85^[a].
On to `CCC(=NOCCCON=C(CC)c1ccc(C)c(C)n1)c1ccc(C)c(C)n1` (mixture of isomers) [Compound 236], for which the logP was 3.80^[a].
On the same count and under the same terms, under `C=C(CON=C(CCC)c1cccc(C)n1)CON=C(CCC)c1cccc(C)n1` (mixture of isomers) [Compound 240] stands 6.27^[a]; under `Cc1cccnc1C(=NOCCCON=C(c1ncccc1C)C(C)C)C(C)C` (mixture of isomers) [compound 92], 4.13^[a].
Same read-out and setting: with `Cc1cccnc1C(=NOCC(C)CON=C(c1ncccc1C)C(C)C)C(C)C` (mixture of isomers) [compound 103] the figure was 4.28^[a].
As for `CC(=NOCC(C)CON=C(C)c1cccnc1Cl)c1cccnc1Cl` (mixture of isomers) [compound 107], the logP was 3.87^[a].
With `CCCC(=NOCC(C)CON=C(CCC)c1ncccc1C)c1ncccc1C` (mixture of isomers) [compound 111], the logP was 4.73^[a].
Turning to `CC(=NOCC(C)CON=C(C)c1sc(C)nc1C)c1sc(C)nc1C` (mixture of isomers) [compound 121], the logP is 4.02^[a].
On to `CC(=NOCC(C)CON=C(C)c1nc(C)cs1)c1nc(C)cs1` (mixture of isomers) [compound 122], for which the logP was 4.98^[a].
The same measure, in the same setting: under `CCC(=NOCCON=C(CC)c1cccc(C)n1)c1cccc(C)n1` (mixture of isomers) [compound 222] stands 3.77^[a]; under `CCC(=NOCCCCON=C(CC)c1cccc(C)n1)c1cccc(C)n1` (mixture of isomers) [compound 223], 4.86^[a]; under `CC(=NOCC(C)CON=C(C)c1csc(Cl)n1)c1csc(Cl)n1` (mixture of isomers) [compound 231], 5.16^[a].
Take `CC(=NOCCCON=C(C)c1csc(Cl)n1)c1csc(Cl)n1` (mixture of isomers) [compound 232]: the logP was 4.69^[a].
Still for that read-out and setting: under `CC(=NOCC(C)CON=C(C)c1ccc(C)nc1)c1ccc(C)nc1` (mixture of isomers) [compound 233] stands 1.50^[a]; under `CC(=NOCC(C)CON=C(C)c1cccnc1C)c1cccnc1C` (mixture of isomers) [compound 234], 1.22^[a]; under `Cc1ccc(C(=NOCCCON=C(c2ccc(C)c(C)n2)C(C)C)C(C)C)nc1C` (mixture of isomers) [compound 237], 4.00^[a].
`Cc1ccc(C(=NOCCCON=C(c2ccc(C)c(C)n2)C(C)C)C(C)C)nc1C` (mixture of isomers) [compound 238]: the logP was 4.94^[a].

Still in this data set, the particulars now being: method marker [b]; isomer A / isomer B / isomer mixture as noted in the cell.
Consider `CC(=NOCC(C)(C)CON=C(C)c1cccc(C)n1)c1cccc(C)n1` (mixture of isomers) [Compound 250], for which the logP is 4.74^[b].
Same read-out and setting: with `C=C(CON=C(C)c1cccc(C)n1)CON=C(CC(C)C)c1ncccc1C` (mixture of isomers) [compound 154] the figure was 5.08^[b].

Staying with this data set, now noted: method marker [c] (footnote not shown).
As to `CC(=NOCCCON=C(C)c1nc(C)cs1)c1cccc(C)n1` (mixture of isomers) [Compound 16], the logP is 4.47^[c].

Still in this data set, the particulars now being: value marked [a].
Take `CCCC(=NOCCCON=C(CCC)c1ccc(C)c(C)n1)c1ccc(C)c(C)n1` (mixture of isomers) [Compound 260]: the logP is 5.22^[a].
Take `Cc1cccc(C(=NOCC(C)(C)CON=C(c2cccc(C)n2)C2CC2)C2CC2)n1` (mixture of isomers) [Compound 281]: the logP is 4.04^[a].
Take `C=C(CON=C(c1cccc(C)n1)C1CC1)CON=C(c1cccc(C)n1)C1CC1` (mixture of isomers) [Compound 312]: the logP is 3.10^[a].
On to `CC(=NOC(C)C(C)C(C)ON=C(C)c1cc(C)cc(C)n1)c1cc(C)cc(C)n1` (mixture of isomers) [Compound 790], for which the logP was 3.60^[a].
Still for that read-out and setting: with `CC(=NOCC(C)CON=C(C)c1cc(C)n(C)n1)c1cc(C)n(C)n1` (mixture of isomers) [compound 261] the figure was 3.09^[a]; with `Cc1cccc(C(=NOCCON=C(c2cccc(C)n2)C(C)C)C(C)C)n1` (mixture of isomers) [compound 288], 4.03^[a].
The same measure, in the same setting: with `Cc1ccc(C(=NOCC(C)CON=C(c2ccc(C)c(C)n2)C(C)C)C(C)C)nc1C` (mixture of isomers) [compound 299] the figure was 4.82^[a].

Still in this data set, the particulars now being: value marked [b].
Turning to `CC(=NOC(C)C(C)C(C)ON=C(C)c1cc(C)cc(C)n1)c1cc(C)cc(C)n1` (mixture of isomers) [Compound 790], the logP was 4.44^[b].
For `CC(=NOCC(C)(C)CON=C(c1ccccc1)c1cccc(C)n1)c1cccc(C)n1` (mixture of isomers) [Compound 880], the logP is 4.72^[b].
As for `CCC(=NOCC(C)CON=C(CC)c1cccc(CC)n1)c1cccc(CC)n1` (mixture of isomers) [compound 263], the logP was 6.33^[b].

The same data set, now with this note: value marked [c].
Regarding `CC(=NOCC(C)(C)CON=C(c1ccccc1)c1cccc(C)n1)c1cccc(C)n1` (mixture of isomers) [Compound 880], the logP was 5.37^[c].
